Molecular target: human Cat S (Homo sapiens (Human), UniProt P25774)
Test: Cathepsin enzyme inhibition assay (fluorogenic peptide substrate Z-Val-Val-Arg-AMC)
Type: biochemical
Details: enzyme 1 nM, substrate 20 μM, pH 6.5
Protocol: Cathepsin Enzyme Inhibition Assay
Enzyme activity is measured by observing the increase in fluorescence intensity caused by cleavage of a peptide substrate containing a fluorophore whose emission is quenched in the intact peptide.
Assay buffer: 100 mM potassium phosphate pH 6.5, EDTA-Na 5 mM, Triton X-100 0.001%, DTT 5 mM.
Enzymes (all at 1 nM): human and mouse Cathepsin S, Cat K, Cat B, Cat L.
Substrate (20 μM): Z-Val-Val-Arg-AMC, except for Cat K which uses Z-Leu-Arg-AMC (both from Bachem).
AMC=7-Amino-4-Methyl-Coumarin.
Excitation 360 nm, Emission 465 nm.
Enzyme is added to the substance dilutions in 96-well microtitre plates and the reaction is started with substrate. […] IC50 are calculated by standard methods.
Inhibition of human Cat S, mouse Cat S, human Cat K, human Cat B, human Cat L and mouse Cat L have been measured separately.

human Cat S, sequence (P25774 115-331): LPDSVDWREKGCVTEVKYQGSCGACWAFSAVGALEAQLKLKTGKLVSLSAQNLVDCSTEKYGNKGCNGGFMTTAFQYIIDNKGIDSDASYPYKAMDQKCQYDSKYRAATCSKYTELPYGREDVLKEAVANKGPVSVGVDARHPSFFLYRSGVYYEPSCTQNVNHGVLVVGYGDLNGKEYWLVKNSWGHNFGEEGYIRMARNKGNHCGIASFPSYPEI

SMILES | IC50 [nM]
Cc1cc(C(F)(F)F)nn1-c1ccc(S(=O)(=O)[C@@H]2C[C@@H](C(=O)NC3(C#N)CC3)N(C(=O)C3(C(F)(F)F)CC3)C2)c(C(F)(F)F)c1 [Example 23, (2S,4R)-4-[4-(5-Methyl-3-trifluoromethyl-pyrazol-1-yl)-2-trifluoromethyl-benzenesulfonyl]-1-(1-trifluoromethyl-cyclopropanecarbonyl)-pyrrolidine-2-carboxylic acid (1-cyano-cyclopropyl)-amide] | 1.12
Cc1ncn(-c2ccc(S(=O)(=O)[C@@H]3C[C@@H](C(=O)NC4(C#N)CC4)N(C(=O)C4(C(F)(F)F)CC4)C3)c(C(F)(F)F)c2)n1 [Example 24, (2S,4R)-4-[4-(3-Methyl-[1,2,4]triazol-1-yl)-2-trifluoromethyl-benzenesulfonyl]-1-(1-trifluoromethyl-cyclopropanecarbonyl)-pyrrolidine-2-carboxylic acid (1-cyano-cyclopropyl)-amide] | 0.772
Cc1nncn1-c1ccc(S(=O)(=O)[C@@H]2C[C@@H](C(=O)NC3(C#N)CC3)N(C(=O)C3(C(F)(F)F)CC3)C2)c(C(F)(F)F)c1 [Example 25, (2S,4R)-4-[4-(3-Methyl-[1,2,4]triazol-4-yl)-2-trifluoromethyl-benzenesulfonyl]-1-(1-trifluoromethyl-cyclopropanecarbonyl)-pyrrolidine-2-carboxylic acid (1-cyano-cyclopropyl)-amide] | 3.27
Cc1nc(C)n(-c2ccc(S(=O)(=O)[C@@H]3C[C@@H](C(=O)NC4(C#N)CC4)N(C(=O)C4(C(F)(F)F)CC4)C3)c(C(F)(F)F)c2)n1 [Example 27, (2S,4R)-4-[4-(3,5-Dimethyl-[1,2,4]triazol-1-yl)-2-trifluoromethyl-benzenesulfonyl]-1-(1-trifluoromethyl-cyclopropanecarbonyl)-pyrrolidine-2-carboxylic acid (1-cyano-cyclopropyl)-amide] | 0.558
Cn1nc(C(F)(F)F)cc1-c1ccc(S(=O)(=O)[C@@H]2C[C@@H](C(=O)NC3(C#N)CC3)N(C(=O)C3(C(F)(F)F)CC3)C2)cc1 [Example 28, (2S,4R)—N-(1-cyanocyclopropyl)-4-(4-(1-methyl-3-(trifluoromethyl)-1H-pyrazol-5-yl)phenylsulfonyl)-1-(1-(trifluoromethyl)cyclopropanecarbonyl)pyrrolidine-2-carboxamide] | 2.33
Cc1cc(-c2ccccc2C=O)ccc1S(=O)(=O)[C@@H]1C[C@@H](C(=O)NC2(C#N)CC2)N(C(=O)C2(C(F)(F)F)CC2)C1 [Example 29, (2S,4R)—N-(1-cyanocyclopropyl)-4-(2′-formyl-3-methylbiphenyl-4-ylsulfonyl)-1-(1-(trifluoromethyl)cyclopropanecarbonyl)pyrrolidine-2-carboxamide] | 0.811
Cc1ncnn1-c1ccc(S(=O)(=O)[C@@H]2C[C@@H](C(=O)NC3(C#N)CC3)N(C(=O)C3(C(F)(F)F)CC3)C2)c(C(F)(F)F)c1 [Example 31, (2S,4R)—N-(1-cyanocyclopropyl)-4-(4-(5-methyl-1H-1,2,4-triazol-1-yl)-2-(trifluoromethyl)phenylsulfonyl)-1-(1-(trifluoromethyl)cyclopropanecarbonyl) pyrrolidine-2-carboxamide] | 0.54
Cc1cc(-c2cc(C(F)(F)F)nn2C)ccc1S(=O)(=O)[C@@H]1C[C@@H](C(=O)NC2(C#N)CC2)N(C(=O)C2(C(F)(F)F)CC2)C1 [Example 32, (2S,4R)—N-(1-cyanocyclopropyl)-4-(2-methyl-4-(1-methyl-3-(trifluoromethyl)-1H-pyrazol-5-yl)phenylsulfonyl)-1-(1-(trifluoromethyl)cyclopropanecarbonyl) pyrrolidine-2-carboxamide] | 0.955
Cc1nc(C)n(-c2ccc(S(=O)(=O)[C@@H]3C[C@@H](C(=O)NC4(C#N)CC4)N(C(=O)C4(C(F)(F)F)CC4)C3)cc2)n1 [Example 33, (2S,4R)—N-(1-cyanocyclopropyl)-4-(4-(3,5-dimethyl-1H-1,2,4-triazol-1-yl)phenylsulfonyl)-1-(1-(trifluoromethyl)cyclopropanecarbonyl)pyrrolidine-2-carboxamide] | 1.57
N#CC1(NC(=O)[C@@H]2C[C@@H](S(=O)(=O)c3ccc(-n4ccnn4)cc3)CN2C(=O)C2(C(F)(F)F)CC2)CC1 [Example 34, (2S,4R)-4-(4-(1H-1,2,3-triazol-1-yl)phenylsulfonyl)-N-(1-cyanocyclopropyl)-1-(1-(trifluoromethyl)cyclopropanecarbonyl)pyrrolidine-2-carboxamide] | 1.06
N#CC1(NC(=O)[C@@H]2C[C@@H](S(=O)(=O)c3ccc(-n4ccc(C(F)(F)F)n4)cc3)CN2C(=O)C2(C(F)(F)F)CC2)CC1 [Example 35, (2S,4R)—N-(1-cyanocyclopropyl)-4-(4-(3-(trifluoromethyl)-1H-pyrazol-1-yl)phenylsulfonyl)-1-(1-(trifluoromethyl)cyclopropanecarbonyl)pyrrolidine-2-carboxamide] | 1.02
Cc1cc(C(F)(F)F)nn1-c1ccc(S(=O)(=O)[C@@H]2C[C@@H](C(=O)NC3(C#N)CC3)N(C(=O)C3(C(F)(F)F)CC3)C2)cc1 [Example 36, (2S,4R)—N-(1-cyanocyclopropyl)-4-(4-(5-methyl-3-(trifluoromethyl)-1H-pyrazol-1-yl)phenylsulfonyl)-1-(1-(trifluoromethyl)cyclopropanecarbonyl)pyrrolidine-2-carboxamide] | 2.6
N#CC1(NC(=O)[C@@H]2C[C@@H](S(=O)(=O)c3ccc(-c4ccccc4C=O)cc3)CN2C(=O)C2(C(F)(F)F)CC2)CC1 [Example 37, (2S,4R)—N-(1-cyanocyclopropyl)-4-(2′-formylbiphenyl-4-ylsulfonyl)-1-(1-(trifluoromethyl)cyclopropanecarbonyl)pyrrolidine-2-carboxamide] | 1.89
CCOc1ccccc1-c1ccc(S(=O)(=O)[C@@H]2C[C@@H](C(=O)NC3(C#N)CC3)N(C(=O)C3(C(F)(F)F)CC3)C2)cc1 [Example 38, (2S,4R)—N-(1-cyanocyclopropyl)-4-(2′-ethoxybiphenyl-4-ylsulfonyl)-1-(1-(trifluoromethyl)cyclopropanecarbonyl)pyrrolidine-2-carboxamide] | 3.21
N#CC1(NC(=O)[C@@H]2C[C@@H](S(=O)(=O)c3ccc(-c4cnc(N)nc4)cc3)CN2C(=O)C2(C(F)(F)F)CC2)CC1 [Example 39, (2S,4R)-4-(4-(2-aminopyrimidin-5-yl)phenylsulfonyl)-N-(1-cyanocyclopropyl)-1-(1-(trifluoromethyl)cyclopropanecarbonyl)pyrrolidine-2-carboxamide] | 0.483
CCOc1ccccc1-c1ccc(S(=O)(=O)[C@@H]2C[C@@H](C(=O)NC3(C#N)CC3)N(C(=O)C3(C(F)(F)F)CC3)C2)c(C)c1 [Example 40, (2S,4R)—N-(1-cyanocyclopropyl)-4-(2′-ethoxy-3-methylbiphenyl-4-ylsulfonyl)-1-(1-(trifluoromethyl)cyclopropanecarbonyl)pyrrolidine-2-carboxamide] | 1.21
Cc1cc(-c2ccccc2C#N)ccc1S(=O)(=O)[C@@H]1C[C@@H](C(=O)NC2(C#N)CC2)N(C(=O)C2(C(F)(F)F)CC2)C1 [Example 41, (2S,4R)-4-(2′-cyano-3-methylbiphenyl-4-ylsulfonyl)-N-(1-cyanocyclopropyl)-1-(1-(trifluoromethyl)cyclopropanecarbonyl)pyrrolidine-2-carboxamide] | 0.86
CCOc1cc(F)c(F)cc1-c1ccc(S(=O)(=O)[C@@H]2C[C@@H](C(=O)NC3(C#N)CC3)N(C(=O)C3(C(F)(F)F)CC3)C2)c(C)c1 [Example 42, (2S,4R)—N-(1-cyanocyclopropyl)-4-(2′-ethoxy-4′,5′-difluoro-3-methylbiphenyl-4-ylsulfonyl)-1-(1-(trifluoromethyl)cyclopropanecarbonyl)pyrrolidine-2-carboxamide] | 1.46
N#CC1(NC(=O)[C@@H]2C[C@@H](S(=O)(=O)c3ccc(-c4ccccc4CO)cc3)CN2C(=O)C2(C(F)(F)F)CC2)CC1 [Example 43, (2S,4R)—N-(1-cyanocyclopropyl)-4-(2′-(hydroxymethyl)biphenyl-4-ylsulfonyl)-1-(1-(trifluoromethyl)cyclopropanecarbonyl)pyrrolidine-2-carboxamide] | 3.57
Cc1cc(-c2cnc(N)nc2)ccc1S(=O)(=O)[C@@H]1C[C@@H](C(=O)NC2(C#N)CC2)N(C(=O)C2(C(F)(F)F)CC2)C1 [Example 44, (2S,4R)-4-(4-(2-aminopyrimidin-5-yl)-2-methylphenylsulfonyl)-N-(1-cyanocyclopropyl)-1-(1-(trifluoromethyl)cyclopropanecarbonyl)pyrrolidine-2-carboxamide] | 0.51
N#CC1(NC(=O)[C@@H]2C[C@@H](S(=O)(=O)c3ccc(-c4ccc5c(c4)OC(F)(F)O5)cc3C(F)(F)F)CN2C(=O)C2(C(F)(F)F)CC2)CC1 [Example 45, (2S,4R)-4-[4-(2,2-Difluoro-benzo[1,3]dioxol-5-yl)-2-trifluoromethyl-benzenesulfonyl]-1-(1-trifluoromethyl-cyclopropanecarbonyl)-pyrrolidine-2-carboxylic acid (1-cyano-cyclopropyl)-amide] | 1.07
Cc1nc(C)c(-c2ccc(S(=O)(=O)[C@@H]3C[C@@H](C(=O)NC4(C#N)CC4)N(C(=O)C4(C(F)(F)F)CC4)C3)c(C(F)(F)F)c2)s1 [Example 48, (2S,4R)-4-[4-(2,4-Dimethyl-thiazol-5-yl)-2-trifluoromethyl-benzenesulfonyl]-1-(1-trifluoromethyl-cyclopropanecarbonyl)-pyrrolidine-2-carboxylic acid (1-cyano-cyclopropyl)-amide] | 1.17
